The text below walks through data of patent US20250171498A1, “ANTIBIOTIC COMPOUNDS, FORMULATIONS AND METHODS OF USE” (UNIVERSITEIT LEIDEN, priority 2022, published 2025).

In brackets after ≈: the same amount, converted by molar mass. Where a SMILES comes first, the peptide text is derived from it. Bridges are numbered along the chain shown (N, C = ends). [ ]: non-standard residue; d: D form. The star is where a group is joined. S(2-cyclohexylethyl) = C1CCC(CCS*)CC1; S(3-Cl-benzyl) = Clc1cccc(CS*)c1; S(3-Methylbutyl) = CC(C)CCS*; dDab = NCC[C@@H](N)C(=O)O; Dab = NCC[C@H](N)C(=O)O

Common to all, as to assay type: cell-based
For series [1], the system named is renal Proximal Tubular Epithelial Cells (PTECs). Put plainly: Toxicity on renal Proximal Tubular Epithelial Cells.
The test system of series [2] is K. Pneumoniae (ATCC 13883). As to conditions: ATCC 13883.
Another series concerns A. Baumanni (ATCC 19606). As to conditions: ATCC 19606.
The next series concerns E. Coli (ATCC 25922). As to conditions: ATCC 25922.
For series [3], the system named is P. Aeruginosa (ATCC 27853). As to conditions: ATCC 27853.

Take `CC(C)CCSSC[C@@H](N)C(=O)N[C@H](C(=O)N[C@H](CCN)C(=O)N[C@H]1CCNC(=O)[C@H]([C@@H](C)O)NC(=O)[C@H](CCN)NC(=O)[C@H](CCN)NC(=O)[C@H](CC(C)C)NC(=O)[C@@H](Cc2ccccc2)NC(=O)[C@H](CCN)NC1=O)[C@@H](C)O` (H-[dC](S(3-Methylbutyl))T[dDab][Dab][Dab][dF]L[Dab][Dab]T; lactam 4-C): the “PTEC Toxicity (relative to polymyxin B)” value in series [1] is recorded as 7.1. Moreover, the “MIC K. Pneumoniae (ATCC 13883)” value in series [2] came to 0.5 µg/mL (≈ 0.428 µM). The “MIC A. Baumanni (ATCC 19606)” value with A. Baumanni (ATCC 19606) stood at 0.25 µg/mL (≈ 0.214 µM). The “MIC E. Coli (ATCC 25922)” value with E. Coli (ATCC 25922) stood at 2 µg/mL (≈ 1.71 µM). Moreover, in series [3], the “MIC P. Aeruginosa (ATCC 27853)” value is 1 µg/mL (≈ 0.856 µM).

For `CC(C)C[C@@H]1NC(=O)[C@@H](Cc2ccccc2)NC(=O)[C@H](CCN)NC(=O)[C@@H](NC(=O)CNC(=O)[C@@H](NC(=O)[C@H](N)CSSCCC2CCCCC2)[C@@H](C)O)CCNC(=O)[C@H]([C@@H](C)O)NC(=O)[C@H](CCN)NC(=O)[C@H](CCN)NC1=O` (H-[dC](S(2-cyclohexylethyl))TG[Dab][Dab][dF]L[Dab][Dab]T; lactam 4-C), the “PTEC Toxicity (relative to polymyxin B)” value in series [1] is 7.4. The “MIC K. Pneumoniae (ATCC 13883)” value in series [2] was 1 µg/mL (≈ 0.858 µM). For the same molecule, in the series on A. Baumanni (ATCC 19606), the “MIC A. Baumanni (ATCC 19606)” value is 0.5 µg/mL (≈ 0.429 µM). In the series on E. Coli (ATCC 25922), the “MIC E. Coli (ATCC 25922)” value stood at 2 µg/mL (≈ 1.72 µM). Also, the “MIC P. Aeruginosa (ATCC 27853)” value in series [3] was found to be 2 µg/mL (≈ 1.72 µM).

With `CC(C)C[C@@H]1NC(=O)[C@@H](Cc2ccccc2)NC(=O)[C@H](CCN)NC(=O)[C@@H](NC(=O)[C@@H](CCN)NC(=O)[C@@H](NC(=O)[C@H](N)CSSCc2cccc(Cl)c2)[C@@H](C)O)CCNC(=O)[C@H]([C@@H](C)O)NC(=O)[C@H](CCN)NC(=O)[C@H](CCN)NC1=O` (H-[dC](S(3-Cl-benzyl))T[dDab][Dab][Dab][dF]L[Dab][Dab]T; lactam 4-C), the “PTEC Toxicity (relative to polymyxin B)” value in series [1] came to 7.0. Further, the “MIC K. Pneumoniae (ATCC 13883)” value in series [2] came out at 1 µg/mL (≈ 0.818 µM). Further, in the series with A. Baumanni (ATCC 19606), the “MIC A. Baumanni (ATCC 19606)” value worked out at 0.5 µg/mL (≈ 0.409 µM). The “MIC E. Coli (ATCC 25922)” value against E. Coli (ATCC 25922) was determined as 2 µg/mL (≈ 1.64 µM). For the same molecule, the “MIC P. Aeruginosa (ATCC 27853)” value in series [3] was determined as 2 µg/mL (≈ 1.64 µM).
